From patent publication US10597388B2, “Pyridazinone herbicides” (FMC CORPORATION, priority 2014, dated 2020)

Tests used:
Type in all cases: in vivo
[1] = tested on: barnyardgrass (Echinochloa crus-galli); assay: Test A greenhouse herbicide test, pre- and postemergence
Outline: (§1)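 Seeds in loam–sand blend received a preemergence directed soil spray; plants at 2–10 cm, one- to two-leaf stage, received postemergence sprays. Compounds in a non-phytotoxic solvent with surfactant. After about 10 d in a greenhouse, injury rated visually versus untreated controls on a 0–100 scale (100 = complete control).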

kochia (Kochia scoparia) = assay: as above
Outline: as §1

[2] = tested on: wheat (Triticum aestivum); assay: as above; conditions: Postemergence; for Plant response rating, Wheat: 125 g ai/ha, 0 to 100 scale where 0 is no effect and 100 is complete control; for Wheat plant response rating: 500 g ai/ha, 0 to 100 scale, 0 is no effect, 100 is complete control
Outline: as §1

[3] = tested on: foxtail, giant (giant foxtail, Setaria faberii); assay: as above
Outline: as §1

[4] = tested on: ragweed (common ragweed, Ambrosia elatior); assay: as above
Outline: as §1

[5] = tested on: pigweed (Amaranthus retroflexus); assay: as above
Outline: as §1

corn (Zea mays) = assay: as above; conditions: Postemergence; for Plant response rating, Corn: 125 g ai/ha, 0 to 100 scale where 0 is no effect and 100 is complete control; for Corn plant response rating: 500 g ai/ha, 0 to 100 scale, 0 is no effect, 100 is complete control
Outline: as §1

[6] = tested on: ryegrass, Italian (Italian ryegrass, Lolium multiflorum); assay: as above
Outline: as §1

[7] = tested on: mustard, wild (wild mustard, Sinapis arvensis); assay: Test D controlled growth environment herbicide test, pre- and postemergence; conditions: for Mustard, Wild plant response rating / Plant response rating (scale of 0 to 100), Mustard, Wild: 31 g ai/ha
From the text: Seeds of plant species selected from bluegrass (annual bluegrass, Poa annua), blackgrass (Alopecurus myosuroides), Canada thistle (Cirsium arvense), canarygrass (Phalaris minor), chickweed (common chickweed, Stellaria media), geranium, cutleaf (cutleaf geranium, Geranium dissectum), galium (catchweed bedstraw, Galium aparine), bromegrass, downy (downy bromegrass, Bromus tectorum), field poppy (Papaver rhoeas), field violet (Viola arvensis), foxtail, green (green foxtail, Setaria viridis), deadnettle (henbit deadnettle, Lamium amplexicaule), ryegrass, Italian (Italian ryegrass, Lolium multiflorum), kochia (Kochia scoparia), lambsquarters (Chenopodium album), oilseed rape (Brassica napus), pigweed (Amaranthus retroflexus), chamomile (scentless chamomile, Matricaria inodora), Russian thistle (Salsola kali), speedwell (bird's-eye speedwell, Veronica persica), barley, spring (spring barley, Hordeum vulgare), wheat, spring (spring wheat, Triticum aestivum), buckwheat, wild (wild buckwheat, Polygonum convolvulus), mustard, wild (wild mustard, Sinapis arvensis), oat, wild (wild oat, Avena fatua), radish, wild (wild radish, Raphanus raphanistrum), windgrass (Apera spica-venti), barley, winter (winter barley, Hordeum vulgare), and wheat, winter (winter wheat, Triticum aestivum) were planted into a silt loam soil and treated preemergence with test chemicals formulated in a non-phytotoxic solvent mixture which included a surfactant.
At the same time, these species were planted in pots containing Redi-Earth® planting medium (Scotts Company, 14111 Scottslawn Road, Marysville, Ohio 43041) comprising spaghnum peat moss, vermiculite, wetting agent and starter nutrients and treated with postemergence applications of the test chemicals formulated in the same manner. Plants ranged in height from 2 to 18 cm (1- to 4-leaf stage). Treated plants and controls were maintained in a controlled growth environment for 14 to 21 d after which time all species were compared to controls and visually evaluated. Plant response ratings, summarized in Table D, are based on a scale of 0 to 100 where 0 is no effect and 100 is complete control. A dash (-) response means no test result.

[8] = Postemergence, 125 g ai/ha, 0 to 100 scale where 0 is no effect and 100 is complete control
[9] = Postemergence, 500 g ai/ha, 0 to 100 scale, 0 is no effect, 100 is complete control
[10] = Preemergence, 125 g ai/ha, 0 to 100 scale where 0 is no effect and 100 is complete control
[11] = Preemergence, 500 g ai/ha, 0 to 100 scale, 0 no effect, 100 complete control
[12] = Preemergence, 500 g ai/ha, 0 to 100 scale where 0 is no effect and 100 is complete control
[13] = Postemergence, scale 0 to 100 (0 no effect, 100 complete control)
[14] = Postemergence, 125 g ai/ha, visual rating on scale 0 (no effect) to 100 (complete control), 14 to 21 d
[15] = Postemergence, 250 g ai/ha, scale 0 to 100 (0 no effect, 100 complete control)
[16] = Preemergence, 62 g ai/ha, scale 0 to 100 (0 no effect, 100 complete control)
[17] = Preemergence, 125 g ai/ha, scale 0 to 100 (0 no effect, 100 complete control)
[18] = Preemergence, 250 g ai/ha, scale 0 to 100, 0 no effect, 100 complete control
[19] = postemergence, 62 g ai/ha, scale 0 to 100, 0 no effect, 100 complete control

Cc1nn(C)c(=O)c(-c2ccc(Br)c3ccccc23)c1O [Compound 75]
Plant response rating, Barnyardgrass [1, 8]: 0 | Barnyardgrass plant response rating [1, 9]: 60 | Barnyardgrass plant response rating [1, 10]: 40 | Plant response rating, Barnyardgrass [1, 11]: 80 | Plant response rating, Kochia (kochia (Kochia scoparia); [8]): 80 | Kochia plant response rating (kochia (Kochia scoparia); [9]): 90 | Kochia plant response rating (kochia (Kochia scoparia); [10]): 80 | Plant response rating, Kochia (kochia (Kochia scoparia); [12]): 90 | Plant response rating, Wheat [2]: 0 | Wheat plant response rating [2]: 20 | Plant response rating, Foxtail, Giant [3, 8]: 50 | Foxtail, Giant plant response rating [3, 9]: 50 | Foxtail, Giant plant response rating [3, 10]: 50 | Plant response rating, Foxtail, Giant [3, 12]: 90 | Plant response rating, Ragweed [4, 8]: 60 | Ragweed plant response rating [4, 9]: 90 | Ragweed plant response rating [4, 10]: 70 | Plant response rating, Ragweed [4, 12]: 90 | Plant response rating, Pigweed [5, 8]: 30 | Pigweed plant response rating [5, 9]: 50 | Pigweed plant response rating [5, 10]: 100 | Plant response rating, Pigweed [5, 12]: 100 | Plant response rating, Corn (corn (Zea mays)): 0 | Corn plant response rating (corn (Zea mays)): 20 | Plant response rating, Ryegrass, Italian [6, 8]: 90 | Ryegrass, Italian plant response rating [6, 9]: 100 | Ryegrass, Italian plant response rating [6, 10]: 100 | Plant response rating, Ryegrass, Italian [6, 12]: 100 | Mustard, Wild plant response rating [7, 13]: 100 | Plant response rating, Mustard, Wild [7, 14]: 100 | Plant response rating, Mustard, Wild [7, 15]: 100 | Plant response rating (scale of 0 to 100), Mustard, Wild ([7]; Preemergence): 55 | Plant response rating, Mustard, Wild [7, 16]: 35 | Plant response rating, Mustard, Wild [7, 17]: 100 | Plant response rating, Mustard, Wild [7, 18]: 95 | Plant response rating, Mustard, Wild [7, 19]: 100

Cc1ccc2sc(Br)c(-c3c(O)c(C)nn(C)c3=O)c2c1 [Compound 79]
Plant response rating, Barnyardgrass [1, 8]: 50 | Barnyardgrass plant response rating [1, 9]: 80 | Barnyardgrass plant response rating [1, 10]: 50 | Plant response rating, Barnyardgrass [1, 11]: 70 | Plant response rating, Kochia (kochia (Kochia scoparia); [8]): 80 | Kochia plant response rating (kochia (Kochia scoparia); [9]): 90 | Kochia plant response rating (kochia (Kochia scoparia); [10]): 70 | Plant response rating, Kochia (kochia (Kochia scoparia); [12]): 90 | Plant response rating, Wheat [2]: 0 | Wheat plant response rating [2]: 0 | Plant response rating, Foxtail, Giant [3, 8]: 70 | Foxtail, Giant plant response rating [3, 9]: 80 | Foxtail, Giant plant response rating [3, 10]: 90 | Plant response rating, Foxtail, Giant [3, 12]: 90 | Plant response rating, Ragweed [4, 8]: 90 | Ragweed plant response rating [4, 9]: 90 | Ragweed plant response rating [4, 10]: 80 | Plant response rating, Ragweed [4, 12]: 80 | Plant response rating, Pigweed [5, 8]: 90 | Pigweed plant response rating [5, 9]: 90 | Pigweed plant response rating [5, 10]: 100 | Plant response rating, Pigweed [5, 12]: 100 | Plant response rating, Corn (corn (Zea mays)): 0 | Corn plant response rating (corn (Zea mays)): 0 | Plant response rating, Ryegrass, Italian [6, 8]: 80 | Ryegrass, Italian plant response rating [6, 9]: 90 | Ryegrass, Italian plant response rating [6, 10]: 80 | Plant response rating, Ryegrass, Italian [6, 12]: 100 | Mustard, Wild plant response rating [7, 13]: 20 | Plant response rating, Mustard, Wild [7, 14]: 40 | Plant response rating, Mustard, Wild [7, 15]: 50 | Plant response rating (scale of 0 to 100), Mustard, Wild ([7]; Preemergence): 0 | Plant response rating, Mustard, Wild [7, 16]: 15 | Plant response rating, Mustard, Wild [7, 17]: 5 | Plant response rating, Mustard, Wild [7, 18]: 10 | Plant response rating, Mustard, Wild [7, 19]: 20

COC(=O)Oc1c(C)nn(C)c(=O)c1-c1c(C)sc2ccc(C)cc12 [Compound 80]
Plant response rating, Barnyardgrass [1, 8]: 70 | Barnyardgrass plant response rating [1, 9]: 80 | Barnyardgrass plant response rating [1, 10]: 70 | Plant response rating, Barnyardgrass [1, 11]: 90 | Plant response rating, Kochia (kochia (Kochia scoparia); [8]): 90 | Kochia plant response rating (kochia (Kochia scoparia); [9]): 90 | Kochia plant response rating (kochia (Kochia scoparia); [10]): 90 | Plant response rating, Kochia (kochia (Kochia scoparia); [12]): 90 | Plant response rating, Wheat [2]: 0 | Wheat plant response rating [2]: 0 | Plant response rating, Foxtail, Giant [3, 8]: 80 | Foxtail, Giant plant response rating [3, 9]: 80 | Foxtail, Giant plant response rating [3, 10]: 80 | Plant response rating, Foxtail, Giant [3, 12]: 90 | Plant response rating, Ragweed [4, 8]: 80 | Ragweed plant response rating [4, 9]: 90 | Ragweed plant response rating [4, 10]: 80 | Plant response rating, Ragweed [4, 12]: 90 | Plant response rating, Pigweed [5, 8]: 90 | Pigweed plant response rating [5, 9]: 90 | Pigweed plant response rating [5, 10]: 90 | Plant response rating, Pigweed [5, 12]: 100 | Plant response rating, Corn (corn (Zea mays)): 0 | Corn plant response rating (corn (Zea mays)): 0 | Plant response rating, Ryegrass, Italian [6, 8]: 80 | Ryegrass, Italian plant response rating [6, 9]: 90 | Ryegrass, Italian plant response rating [6, 10]: 90 | Plant response rating, Ryegrass, Italian [6, 12]: 100 | Mustard, Wild plant response rating [7, 13]: 35 | Plant response rating, Mustard, Wild [7, 14]: 70 | Plant response rating, Mustard, Wild [7, 15]: 100 | Plant response rating (scale of 0 to 100), Mustard, Wild ([7]; Preemergence): 0 | Plant response rating, Mustard, Wild [7, 16]: 0 | Plant response rating, Mustard, Wild [7, 17]: 0 | Plant response rating, Mustard, Wild [7, 18]: 0 | Plant response rating, Mustard, Wild [7, 19]: 50
